Test results taken from ChEMBL document CHEMBL1201862, “PubChem BioAssay data set” (2004).
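Interpolation was linear, between the two tested concentrations surrounding the appropriate level; five concentrations were tested over 48 hours in 96-well plates. GI50 = concentration required for 50% inhibition of growth.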 Activity calls are given as the source filed them. Rule as the data show it: active = GI50 up to about 1.1 µM and inactive = higher.

Legend:
Experiment in all cases: DTP human tumour cell line panel, 48 h
HT-29 = system: HT-29
786-0 = system: 786-0
SF-268 = system: SF-268
SNB-19 = system: SNB-19
A549 = system: A549
NCI-H226 = system: NCI-H226
KM12 = system: KM12
CCRF-CEM = system: CCRF-CEM
RXF 393 = system: RXF 393
CAKI-1 = system: CAKI-1
RPMI-8226 = system: RPMI-8226
IGROV-1 = system: IGROV-1
SF-295 = system: SF-295
UACC-257 = system: UACC-257
K562 = system: K562
SK-OV-3 = system: SK-OV-3
M14 = system: M14
SNB-75 = system: SNB-75
NCI-H23 = system: NCI-H23
U-251 = system: U-251

Measured: GI50

O=C1C2C3C=CC(C2C(=O)N1CO)C1C2C(=O)N(CO)C(=O)C2C31 (stereo not drawn)
inactive: HT-29 92.5 µM | 786-0 > 44 µM | SF-268 > 50.4 µM | SNB-19 > 100 µM | A549 > 54.2 µM | NCI-H226 > 100 µM | KM12 > 74.3 µM | CCRF-CEM 23.6 µM | RXF 393 > 81.7 µM | CAKI-1 > 100 µM | RPMI-8226 21.8 µM | IGROV-1 > 100 µM | SF-295 > 100 µM | UACC-257 > 100 µM | K562 > 48.6 µM | SK-OV-3 > 100 µM | M14 > 100 µM | SNB-75 70.8 µM | NCI-H23 > 100 µM | U-251 > 67.1 µM

CC(C)C1C(=O)N(c2c(F)c(F)c(F)c(F)c2F)C(=S)N1CC[S+]([O-])c1ccccc1 (stereo not drawn)
inactive: HT-29 14 µM | 786-0 16.9 µM | SF-268 16.7 µM | SNB-19 18.7 µM | A549 18.9 µM | NCI-H226 20.4 µM | KM12 16.8 µM | CCRF-CEM 18.3 µM | RXF 393 17.8 µM | CAKI-1 5.19 µM | RPMI-8226 18.8 µM | IGROV-1 16.7 µM | SF-295 18 µM | UACC-257 20.2 µM | K562 10.8 µM | SK-OV-3 19.6 µM | M14 15.7 µM | SNB-75 26.4 µM | NCI-H23 16.8 µM | U-251 14.8 µM

Cc1ccc(S(=O)(=O)NC(CO)C(=O)O)cc1 (stereo not drawn)
inactive: HT-29 > 100 µM | 786-0 > 100 µM | SF-268 > 100 µM | SNB-19 > 100 µM | A549 > 100 µM | NCI-H226 > 100 µM | KM12 > 100 µM | CCRF-CEM > 100 µM | RXF 393 > 100 µM | CAKI-1 > 100 µM | RPMI-8226 > 100 µM | IGROV-1 > 100 µM | SF-295 > 100 µM | UACC-257 > 100 µM | K562 > 100 µM | SK-OV-3 > 100 µM | M14 > 100 µM | SNB-75 > 100 µM | NCI-H23 > 100 µM | U-251 > 100 µM

COc1c(/C=C/C=O)cc2c(c1OC)OCO2
inactive: HT-29 24.2 µM | 786-0 54.1 µM | SF-268 41.1 µM | SNB-19 16.4 µM | A549 > 100 µM | NCI-H226 2.96 µM | KM12 12 µM | CCRF-CEM 22.1 µM | RXF 393 > 100 µM | CAKI-1 5.21 µM | RPMI-8226 14.3 µM | IGROV-1 22.8 µM | SF-295 21.2 µM | UACC-257 48.1 µM | SK-OV-3 60.8 µM | M14 24.2 µM | SNB-75 > 100 µM | NCI-H23 30.4 µM | U-251 23.2 µM

CC1=C(O)C(=O)c2cn(C)cc2C1=O
inactive: HT-29 > 100 µM | 786-0 > 100 µM | SF-268 > 100 µM | SNB-19 > 100 µM | A549 > 100 µM | NCI-H226 > 100 µM | KM12 > 100 µM | CCRF-CEM > 100 µM | RXF 393 > 100 µM | CAKI-1 > 100 µM | RPMI-8226 > 100 µM | IGROV-1 > 100 µM | SF-295 > 100 µM | UACC-257 > 100 µM | K562 > 100 µM | SK-OV-3 > 100 µM | M14 > 100 µM | SNB-75 > 100 µM | NCI-H23 > 100 µM | U-251 > 100 µM

Cc1cc(NS(=O)(=O)c2ccc(Nc3c4ccccc4nc4ccc(C(=O)Nc5ccc(S(N)(=O)=O)cc5)cc34)cc2)no1
inactive: HT-29 > 100 µM | 786-0 > 100 µM | SF-268 > 100 µM | SNB-19 > 100 µM | A549 > 100 µM | NCI-H226 > 100 µM | KM12 69 µM | CCRF-CEM > 100 µM | RXF 393 > 100 µM | CAKI-1 > 100 µM | RPMI-8226 > 100 µM | IGROV-1 > 100 µM | SF-295 > 100 µM | UACC-257 > 100 µM | K562 > 100 µM | SK-OV-3 > 100 µM | M14 > 100 µM | SNB-75 > 100 µM | NCI-H23 > 100 µM | U-251 57.4 µM

O=C(CC1(O)C(=O)Nc2ccc(Br)cc21)c1cccc([N+](=O)[O-])c1 (stereo not drawn)
inactive: HT-29 32.7 µM | 786-0 42.7 µM | SF-268 39 µM | SNB-19 61.5 µM | A549 > 100 µM | NCI-H226 26.9 µM | KM12 42.6 µM | CCRF-CEM 24.1 µM | RXF 393 23.8 µM | CAKI-1 40.9 µM | RPMI-8226 18.3 µM | SF-295 59 µM | UACC-257 27.9 µM | K562 20.6 µM | SK-OV-3 > 100 µM | M14 48.8 µM | SNB-75 26.7 µM | NCI-H23 43.9 µM | U-251 > 100 µM
